These results are taken from ChEMBL document CHEMBL1221314, “Potential anti-inflammatory phenolic glycosides from the medicinal plant Moringa oleifera fruits” (Bioorg Med Chem, 2010).

By IC50 is commonly meant the concentration at which inhibition is half-maximal. As a reminder, the inhibition is the relative decrease from the control value, in per cent.

The test system of data set [1] is RAW264.7. The data set can be described thus: Antiinflammatory activity in mouse RAW264.7 cells assessed as inhibition of LPS-induced iNOS expression incubated 30 mins prior to LPS challenge by Western blotting. The class given is functional, cell-based. For orientation: Immunoblotting shows a protein as a band on a membrane.
In data set [2] the test system is RAW264.7. Description: Antiinflammatory activity in mouse RAW264.7 cells assessed as inhibition of LPS-induced NO production incubated 30 mins prior to LPS challenge. The class given is functional, cell-based.
For data set [3], the system named is RAW264.7. Description: Cytotoxicity against mouse RAW264.7 cells after 24 hrs by SRB assay. The class given is cell-based. Conditions: raw264.7, 24 h. (In general: In SRB staining, fixed cells bind dye roughly in proportion to their protein.)
In data set [4] the test system is RAW264.7. The data set can be described thus: Antiinflammatory activity in mouse RAW264.7 cells assessed as inhibition of LPS-induced NO production at 5 uM incubated 30 mins prior to LPS challenge. The class given is functional.

On to `CC(=O)O[C@H]1[C@H](Oc2ccc(CN=C=S)cc2)O[C@@H](C)[C@H](O)[C@H]1O`, for which the Activity entry was “Dose-dependent effect” in the data set with RAW264.7 [1] and “Non-toxic” in the data set on RAW264.7 [3]. Further, the half-inhibitory concentration (IC50) with RAW264.7 [2] turned out to be 1.67 µM.
As for `CC(=O)O[C@@H]1[C@@H](O)[C@@H](O)[C@H](Oc2ccc(CN=C=S)cc2)O[C@H]1C`, the Activity entry in the data set on RAW264.7 [1] is “Dose-dependent effect”; with RAW264.7 [3], “Non-toxic”. Also, the half-maximal inhibitory concentration (IC50) in the data set on RAW264.7 [2] is 2.71 µM.
Regarding `CC(=O)O[C@@H]1[C@@H](O)[C@H](C)O[C@@H](Oc2ccc(CN=C=S)cc2)[C@@H]1O`, the values for the Activity entry in the data set on RAW264.7 [1] and in the data set on RAW264.7 [3] were “Dose-dependent effect” and “Non-toxic”, respectively. Moreover, the IC50 in the data set with RAW264.7 [2] was found to be 2.66 µM.
With `CSC(=O)NCc1ccc(O[C@@H]2O[C@@H](C)[C@H](O)[C@@H](O)[C@H]2O)cc1`, the IC50 with RAW264.7 [2] was over 45 µM. The inhibition at 5 µM with RAW264.7 [4] worked out at 24.3%.
The corresponding values for `COC(=S)NCc1ccc(O[C@@H]2O[C@@H](C)[C@H](O)[C@@H](O)[C@H]2O)cc1` [NIAZININ A] are over 45 µM and under 1%.
Taken in the same sequence, the figures for `C[C@@H]1O[C@@H](Oc2ccc(CC#N)cc2)[C@H](O)[C@H](O)[C@H]1O` [NIAZIRIN] were over 45 µM and under 1%.
Consider `C[C@@H]1O[C@@H](Oc2ccc(CN=C=S)cc2)[C@H](O)[C@H](O)[C@H]1O`, for which the Activity result with RAW264.7 [1] is “Dose-dependent effect”. In addition, the half-inhibitory concentration (IC50) in the data set on RAW264.7 [2] was 14.4 µM.
As for `COC(=S)NCc1ccc(O[C@@H]2O[C@@H](C)[C@H](OC(C)=O)[C@@H](O)[C@H]2O)cc1` [NIAZICIN A], the IC50 in the data set with RAW264.7 [2] was over 45 µM. Moreover, in the data set on RAW264.7 [4], the inhibition at 5 µM amounted to 17.3%.
As to `CNC(=N)NCCC[C@H](N)C(=O)O`, in the data set on RAW264.7 [2], the IC50 came to 25.5 µM.
